Measurements: patent US20040023853A1, “Antagonistic peptides of prostaglandin E2 receptor subtype EP4” (priority 2002, published 2004)
In brackets after ≈: the same amount, converted by molar mass. Non-standard residues stand in square brackets, D forms with d. Residues, ends and D or L forms follow the SMILES beside them. Bip = N[C@@H](Cc1ccc(-c2ccccc2)cc1)C(=O)O; dBip = N[C@H](Cc1ccc(-c2ccccc2)cc1)C(=O)O

What was measured:
[1] = Solubility of the peptides in water; format: physicochemical; conditions: for solubility: determined in water
Protocol: Several peptides, based on the structure of 213.15 (SEQ ID NO: 1), were synthesized using F-moc chemistry and the solid phase Merrifield peptide method. The purity of the trifluoroacetate salts of these peptides was assessed by HPLC and mass spectroscopy. The general synthesis methods will be better understood by referring to the following treatises: “Solid phase peptide synthesis”, Stewart & Young, W. H. Freeman Co. San Francisco, 1969; “The proteins”, Erikson and Merrifield, Vol. 2. (ed. Neurath & Hill), Academic Press, New York. 1976.

[2] = system: rat model of ischemic nephropathy; assay: Rat model of ischemic nephropathy (bilateral renal artery occlusion): GFR, urine flow, renal plasma flow, BUN/creatinine, histology; format: in vivo, Sprague-Dawley rats; conditions: 213.29 1 mg/kg iv bolus
Protocol: Bilateral clamping of the renal arteries for 30-60 minutes results in the […] of the kidneys and associated sequelae such as a dramatic decrease in glomerular filtration rate, urine output and tubular cell death. This model reproduces some important consequences of oligouric renal failure in humans. The efficacy of various 213.15 derivatives in reversing the renal damage was measured.
Sprague-Dawley rats (250-300 g) were anesthetized and the jugular vein was canulated for infusion with the peptide or with saline. In addition, the carotid artery was canulated to measure the arterial blood pressure with a pressure transducer (Gould) and to collect blood samples. The urinary bladder was canulated to collect urine. After catheterization, an infusion (1.6 ml/hr) of a mixture of [^3H] inulin (8 μCi/hr), [^14C] aminohippuric acid (0.8 μCi/hr) and anesthetics (ketamine and xylazine; 9:1 w:w; 0.095 ml/ml) was started. The animals were allowed to stabilize for a further 40 minutes. Two urine samples were collected over 10 minute periods, (from 40 to 50 minutes, and from 50 to 60 minutes) to assess the stability of the basal GFR. Blood samples were collected at 45 and 55 minutes respectively. The left and right renal arteries were then clamped for a period of 60 minutes to induce an acute renal ischemia. After the ischemic period, the animals were treated with peptides, 213.19-213.30, (1 mg/kg iv bolus) or with saline via the jugular vein. Blood and urine samples were then collected every 20 minutes for an additional period of 2 hours. Glomerular filtration rates (GFR) and urine flow rates, (measured by the [^3H] inulin method) as well as renal plasma flow (measured by the [^14C] aminohippuric acid method), were determined at different times and averaged for a 60 minute (20-80 minutes following the drug administration) period.
The efficacy of fenoldopam and 213.29, in improving kidney function in the rat model of ischemic nephropathy (described in Example 2) was compared. […]

[3] = fenoldopam 0.6 μg/kg iv bolus then 0.6 μg/kg/h

SMILES | solubility [1] | also measured
CC(C)C[C@@H](NC(=O)[C@@H](CO)NC(=O)[C@@H](CCC(=O)O)NC(=O)[C@@H](Cc1ccc(O)cc1)NC(=O)[C@@H](CCC(=O)O)NC(=O)[C@@H](CO)NC(=O)[C@H](NC(=O)[C@H](N)Cc1ccc(-c2ccccc2)cc1)[C@H](C)O)C(=O)N[C@@H](CCCCN)C(=O)O [Peptide 213.23, (bip)tseyeslK] (H-[dBip][dT][dS][dE][dY][dE][dS][dL]K-OH; N-terminus and C-terminus assumed) | 13 mg/mL (≈ 11 mM) | 
CC(C)C[C@@H](NC(=O)[C@@H](C)NC(=O)[C@@H](CCC(=O)O)NC(=O)[C@@H](Cc1ccc(O)cc1)NC(=O)[C@@H](CCC(=O)O)NC(=O)[C@@H](CO)NC(=O)[C@H](NC(=O)[C@@H](N)Cc1ccc(-c2ccccc2)cc1)[C@H](C)O)C(=O)N[C@@H](CCCCN)C(=O)N[C@@H](CCCCN)C(=O)O [Peptide 213.27, (Bip)tseyealKK] (H-[Bip][dT][dS][dE][dY][dE][dA][dL]KK-OH; N-terminus and C-terminus assumed) | 23 mg/mL (≈ 17.8 mM) | 
CC(C)C[C@@H](NC(=O)[C@@H](C)NC(=O)[C@@H](CCC(=O)O)NC(=O)[C@@H](Cc1ccc(O)cc1)NC(=O)[C@@H](CCC(=O)O)NC(=O)[C@@H](CO)NC(=O)[C@H](NC(=O)[C@H](N)Cc1ccc(-c2ccccc2)cc1)[C@H](C)O)C(=O)N[C@@H](CCCCN)C(=O)N[C@@H](CCCCN)C(=O)O [Peptide 213.21, (bip)tseyealKK] (H-[dBip][dT][dS][dE][dY][dE][dA][dL]KK-OH; N-terminus and C-terminus assumed) | 24.5 mg/mL (≈ 19 mM) | 
CC(C)C[C@H](NC(=O)[C@@H](C)NC(=O)[C@@H](CCC(=O)O)NC(=O)[C@@H](Cc1ccc(O)cc1)NC(=O)[C@@H](CCC(=O)O)NC(=O)[C@@H](CO)NC(=O)[C@H](NC(=O)[C@H](N)Cc1ccc(-c2ccccc2)cc1)[C@H](C)O)C(=O)N[C@@H](CCCCN)C(=O)N[C@@H](CCCCN)C(=O)O [Peptide 213.28, (bip)tseyeaLKK] (H-[dBip][dT][dS][dE][dY][dE][dA]LKK-OH; N-terminus and C-terminus assumed) | 20 mg/mL (≈ 15.5 mM) | 
CC(C)C[C@@H](NC(=O)[C@@H](C)NC(=O)[C@@H](CCC(=O)O)NC(=O)[C@@H](Cc1ccc(O)cc1)NC(=O)[C@@H](CCC(=O)O)NC(=O)[C@@H](CO)NC(=O)[C@H](NC(=O)[C@H](N)Cc1ccc(-c2ccccc2)cc1)[C@H](C)O)C(=O)N[C@@H](CCCCN)C(=O)O [Peptide 213.19, (bip)tseyealK] (H-[dBip][dT][dS][dE][dY][dE][dA][dL]K-OH; N-terminus and C-terminus assumed) | 2.8 mg/mL (≈ 2.41 mM) | 
CC(C)C[C@@H](NC(=O)[C@@H](C)NC(=O)[C@@H](CCC(=O)O)NC(=O)[C@@H](Cc1ccc(O)cc1)NC(=O)[C@@H](CCC(=O)O)NC(=O)[C@@H](CO)NC(=O)[C@H](NC(=O)[C@H](N)Cc1ccc(-c2ccccc2)cc1)[C@H](C)O)C(=O)O [Peptide 213.15, (bip)tseyeal] (H-[dBip][dT][dS][dE][dY][dE][dA][dL]-OH; N-terminus and C-terminus assumed) | 0.2 mg/mL (≈ 0.193 mM) | solubility (in words) [1]: poor solubility
CC(C)C[C@@H](NC(=O)CNC(=O)[C@@H](CCC(=O)O)NC(=O)[C@@H](Cc1ccc(O)cc1)NC(=O)[C@@H](CCC(=O)O)NC(=O)[C@@H](CO)NC(=O)[C@H](NC(=O)[C@H](N)Cc1ccc(-c2ccccc2)cc1)[C@H](C)O)C(=O)N[C@@H](CCCCN)C(=O)N[C@@H](CCCCN)C(=O)O [Peptide 213.22, (bip)tseyeglKK] (H-[dBip][dT][dS][dE][dY][dE]G[dL]KK-OH; N-terminus and C-terminus assumed) | 24.5 mg/mL (≈ 19.2 mM) | 
CC(C)C[C@@H](NC(=O)[C@@H](CO)NC(=O)[C@@H](CCC(=O)O)NC(=O)[C@@H](Cc1ccc(O)cc1)NC(=O)[C@@H](CCC(=O)O)NC(=O)[C@@H](CO)NC(=O)[C@H](NC(=O)[C@H](N)Cc1ccc(-c2ccccc2)cc1)[C@H](C)O)C(=O)N[C@@H](CCCCN)C(=O)N[C@@H](CCCCN)C(=O)O [Peptide 213.24, (bip)tseyeslKK] (H-[dBip][dT][dS][dE][dY][dE][dS][dL]KK-OH; N-terminus and C-terminus assumed) | 23.5 mg/mL (≈ 18 mM) | 
Oc1ccc(C2CNCCc3c2cc(O)c(O)c3Cl)cc1 (centres unmarked) [fenoldopam, Fenoldopam] |  | renal perfusion and GFR [2, 3]: only 213.29 was able to improve renal perfusion and GFR significantly; urine output [2, 3]: increased urine output to a similar extent; blood urea nitrogen (BUN) and serum creatinine levels ([2]; after 72 hours, fenoldopam 0.6 μg/kg bolus then 0.6 μg/kg/h): equally efficacious in reducing BUN and creatinine levels
CC(C)C[C@@H](NC(=O)CNC(=O)[C@@H](CCC(=O)O)NC(=O)[C@@H](Cc1ccc(O)cc1)NC(=O)[C@@H](CCC(=O)O)NC(=O)[C@@H](CO)NC(=O)[C@H](NC(=O)[C@H](N)Cc1ccc(-c2ccccc2)cc1)[C@H](C)O)C(=O)N[C@@H](CCCCN)C(=O)O [Peptide 213.20, (bip)tseyeglK] (H-[dBip][dT][dS][dE][dY][dE]G[dL]K-OH; N-terminus and C-terminus assumed) | 1.15 mg/mL (≈ 1 mM) | 
CC(C)C[C@@H](NC(=O)[C@@H](C)NC(=O)[C@@H](CCC(=O)O)NC(=O)[C@@H](Cc1ccc(O)cc1)NC(=O)[C@@H](CCC(=O)O)NC(=O)[C@@H](CO)NC(=O)[C@H](NC(=O)[C@H](N)Cc1ccc(-c2ccccc2)cc1)[C@H](C)O)C(=O)NCC(=O)N[C@@H](CCCCN)C(=O)N[C@@H](CCCCN)C(=O)O [Peptide 213.30, (bip)tseyealGKK] (H-[dBip][dT][dS][dE][dY][dE][dA][dL]GKK-OH; N-terminus and C-terminus assumed) | 16 mg/mL (≈ 11.9 mM) | 
CC(C)C[C@H](NC(=O)[C@@H](C)NC(=O)[C@@H](CCC(=O)O)NC(=O)[C@@H](Cc1ccc(O)cc1)NC(=O)[C@@H](CCC(=O)O)NC(=O)[C@@H](CO)NC(=O)[C@H](NC(=O)[C@@H](N)Cc1ccc(-c2ccccc2)cc1)[C@H](C)O)C(=O)N[C@@H](CCCCN)C(=O)N[C@@H](CCCCN)C(=O)O [Peptide 213.29, (Bip)tseyeaLKK] (H-[Bip][dT][dS][dE][dY][dE][dA]LKK-OH; N-terminus and C-terminus assumed) | 15.6 mg/mL (≈ 12.1 mM) | 
C[C@H](O)[C@@H](NC(=O)[C@H](N)Cc1ccc(-c2ccccc2)cc1)C(=O)N[C@H](CO)C(=O)N[C@H](CCC(=O)O)C(=O)N[C@H](Cc1ccc(O)cc1)C(=O)N[C@H](CCC(=O)O)C(=O)N[C@H](CO)C(=O)N[C@@H](CCCCN)C(=O)O [Peptide 213.26, (bip)tseyesK] (H-[dBip][dT][dS][dE][dY][dE][dS]K-OH; N-terminus and C-terminus assumed) | 8 mg/mL (≈ 7.5 mM) | 
C[C@H](O)[C@@H](NC(=O)[C@H](N)Cc1ccc(-c2ccccc2)cc1)C(=O)N[C@H](CO)C(=O)N[C@H](CCC(=O)O)C(=O)N[C@H](Cc1ccc(O)cc1)C(=O)N[C@H](CCC(=O)O)C(=O)N[C@H](C)C(=O)N[C@@H](CCCCN)C(=O)O [Peptide 213.25, (bip)tseyeaK] (H-[dBip][dT][dS][dE][dY][dE][dA]K-OH; N-terminus and C-terminus assumed) | 6 mg/mL (≈ 5.71 mM) | 
